Laboratory results as given in US7868005B2, “Pyrazinyl substituted piperazine-piperidines with CXCR3 antagonist activity” (Schering Corporation, priority 2005, dated 2011).

Each compound was assayed against T1, human CXCR3 (N-delta 4) (Homo sapiens, UniProt P49682) (assay: Human CXCR3 (N-delta 4) Scintillation Proximity Assay (SPA), [125I] IP-10 binding to Ba/F3-hCXCR3 membranes). Conditions: IC50 rating, Table 1; read-out: IC50.
T1 construct: CD8 leader (N); Flag; expressed in transfected cells; membranes prepared
T1 sequence (P49682 5-368 limits assumed): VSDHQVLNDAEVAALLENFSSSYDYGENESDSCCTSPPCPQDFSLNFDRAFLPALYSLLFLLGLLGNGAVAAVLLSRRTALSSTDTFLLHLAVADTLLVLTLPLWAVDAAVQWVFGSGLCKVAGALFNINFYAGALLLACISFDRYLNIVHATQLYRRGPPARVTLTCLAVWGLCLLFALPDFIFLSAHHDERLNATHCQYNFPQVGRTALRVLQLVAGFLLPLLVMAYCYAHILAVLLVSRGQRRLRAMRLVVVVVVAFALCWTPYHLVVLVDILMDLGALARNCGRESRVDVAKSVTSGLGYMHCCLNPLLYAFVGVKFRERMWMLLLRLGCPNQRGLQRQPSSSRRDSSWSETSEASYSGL
In the case of `CC[C@H]1CN(c2nc(N)c(C(=O)NC)nc2Cl)CCN1C1CCN(C(=O)c2ccc(Br)cc2)CC1` [compound 331], the IC50 is reported as < 0.025 µM. With `CC[C@H]1CN(c2ncc(C(=O)NC3CC3)nc2C)[C@H](C)CN1C1CCN(C(=O)c2ccc(Cl)cc2)CC1` [compound 468] the IC50 was < 0.025 µM. In the case of `CC[C@H]1CN(c2nc(N)c(C(N)=O)nc2Cl)CCN1C1CCN(Cc2ccc(-n3cccn3)cc2)CC1` [compound 25], the IC50 is reported as 0.025 to 0.1 µM. In the case of `CC[C@H]1CN(c2nc(N)c(C(=O)NNC(C)=O)nc2Cl)CCN1C1CCN(C(=O)c2ccc(Cl)cc2)CC1` [compound 373], the IC50 is reported as > 0.1 µM. For `CC[C@H]1CN(c2nc(N)c(C(=O)NCCO)nc2Cl)CCN1C1CCN(Cc2ccc(Cl)cc2N2CC[C@@H](O)C2)CC1` [compound 141], the IC50 was < 0.025 µM. For `CC[C@H]1CN(c2nc(N)c(C(=O)NCCO)nc2Cl)CCN1C1CCN(Cc2ccc(Cl)cc2OCCCO)CC1` [compound 169], the IC50 was < 0.025 µM. `CC[C@H]1CN(c2ncc(C(N)=O)nc2C)CCN1C1CCN(Cc2ccc(C(F)(F)F)cc2)CC1` [compound 445] was tested, and the IC50 was < 0.025 µM. `CC[C@H]1CN(c2nc(N)c(C(N)=O)nc2Cl)CCN1C1CCN([C@@H](C(N)=O)c2ccc(Cl)cc2)CC1` [compound 57] was tested, and the IC50 was > 0.1 µM. In the case of `CC[C@H]1CN(c2nc(N)c(C(=O)NCCO)nc2Cl)CCN1C1CCN([C@@H](C(=O)O)c2ccc(Cl)cc2)CC1` [compound 177], the IC50 is reported as 0.025 to 0.1 µM. `CC[C@H]1CN(c2nc(N)c(C(=O)NCCNS(C)(=O)=O)nc2Cl)CCN1C1CCN([C@H](C(=O)OC)c2ccc(Cl)cc2)CC1` [compound 251] was tested, and the IC50 was > 0.1 µM. With `CC[C@H]1CN(c2nc(N)c(C(=O)NCCNS(N)(=O)=O)nc2Cl)CCN1C1CCN(Cc2ccc(Cl)cc2C#N)CC1` [compound 267] the IC50 was < 0.025 µM. With `CC[C@H]1CN(c2nc(N)c(C(=O)NCCO)nc2Cl)CCN1C1CCN(C2c3ccc(C#N)cc3CCC2O)CC1` (some centres unmarked) [compound 304] the IC50 was < 0.025 µM. `CC[C@H]1CN(c2ncc(C(N)=O)nc2Cl)CCN1C1CCN(Cc2ccc(Cl)cc2F)CC1` [compound 284] was tested, and the IC50 was < 0.025 µM. For `CC[C@H]1CN(c2ncc(C(=O)NC3CC3)nc2C)CCN1C1CCN(Cc2ccc(Cl)cc2)CC1` [compound 449], the IC50 was < 0.025 µM. `CCNC(=O)NCCc1cc(Cl)ccc1CN1CCC(N2CCN(c3nc(N)c(C(=O)OC)nc3Cl)C[C@@H]2CC)CC1` [compound 298] was tested, and the IC50 was 0.025 to 0.1 µM. In the case of `CC[C@H]1CN(c2nc(N)c(C(=O)NCCN/C(N)=N/C#N)nc2Cl)CCN1C1CCN(C(=O)c2ccc(Cl)cc2)CC1` [compound 355], the IC50 is reported as > 0.1 µM. `CC[C@H]1CN(c2nc(N)c(C(=O)NCCNS(C)(=O)=O)nc2Cl)CCN1C1CCN(Cc2ccc(F)c(F)c2N2CC[C@@H](O)C2)CC1` [compound 252] was tested, and the IC50 was 0.025 to 0.1 µM. Work on `CC[C@H]1CN(c2nc(N)c(C(=O)NCCO)nc2Cl)CCN1C1CCN(C(=O)c2ccc(C)cc2O)CC1` [compound 321] yielded an IC50 of 0.025 to 0.1 µM. `CC[C@H]1CN(c2nc(N)c(C(=O)NCCNS(C)(=O)=O)nc2Cl)CCN1C1CCN(Cc2ccc(Cl)cc2N2CC[C@@H](O)C2)CC1` [compound 248] gave an IC50 of 0.025 to 0.1 µM. Compound `CC[C@H]1CN(c2nc(N)c(C(=O)NCCO)nc2Cl)CCN1C1CCN(C(=O)c2ccc(Cl)cc2C(C)C#N)CC1` (some centres unmarked) [compound 344] has an IC50 of 0.025 to 0.1 µM. For `CCNC(=O)c1cnc(N2CCN(C3CCN(C(=O)c4ccc(Cl)cc4)CC3)[C@@H](CC)C2)c(C(F)(F)F)n1` [compound 484], the IC50 was < 0.025 µM. With `CC[C@H]1CN(c2nc(N)c(C(=O)NCCO)nc2Cl)CCN1C1CCN(C(=O)c2ccc(Cl)cc2OCCNS(=O)(=O)C(F)(F)F)CC1` [compound 316] the IC50 was < 0.025 µM. With `CC[C@H]1CN(c2ncc(C(N)=O)nc2C)CCN1C1CCN([C@@H](CO)c2ccc(Cl)cc2)CC1` [compound 443] the IC50 was < 0.025 µM. With `CC[C@H]1CN(c2nc(N)c(C(=O)NCCO[Si](C(C)C)(C(C)C)C(C)C)nc2Cl)CCN1C1CCN(Cc2ccc(F)c(F)c2N2CC[C@H](O)C2)CC1` [compound 374] the IC50 was > 0.1 µM. `CC[C@H]1CN(c2cnc(C(N)=O)cn2)CCN1C1CCN([C@@H](CO)c2ccc(Cl)cc2)CC1` [compound 438] was tested, and the IC50 was < 0.025 µM. With `CC[C@H]1CN(c2ncc(C(N)=O)nc2C)[C@H](C)CN1C1CCN([C@@H](CO)c2ccc(Cl)cc2)CC1` [compound 453] the IC50 was < 0.025 µM. In the case of `C[C@H]1CN(c2nc(N)c(C(N)=O)nc2Cl)CCN1C1CCN(Cc2ccc(Cl)cc2)CC1` [compound 29], the IC50 is reported as 0.025 to 0.1 µM. With `CC[C@H]1CN(c2nc(N)c(C(=O)OC)nc2Cl)CCN1C1CCN(Cc2ccc(Cl)cc2OCCNC(=O)NC(C)(C)C)CC1` [compound 297] the IC50 was 0.025 to 0.1 µM. For `CC[C@H]1CN(c2nc(N)c(C(=O)NCCO)nc2Cl)CCN1C1CCN(Cc2ccc(Cl)cc2OCCNS(N)(=O)=O)CC1` [compound 134], the IC50 was < 0.025 µM. With `CC[C@H]1CN(c2nc(N)c(C(N)=O)nc2Cl)CCN1C1CCN(Cc2ccc(Cl)cc2[C@H](O)C(=O)NC)CC1` [compound 12] the IC50 was < 0.025 µM. With `CC[C@H]1CN(c2nc(N)c(C(=O)NC[C@@H](C)O)nc2Cl)CCN1C1CCN(Cc2ccc(Cl)cc2[C@@H](O)C(N)=O)CC1` [compound 222] the IC50 was < 0.025 µM. With `CC[C@H]1CN(c2nc(N)c(C(=O)NC(=N)NC)nc2Cl)CCN1C1CCN(C(=O)c2ccc(Cl)cc2)CC1` [compound 393] the IC50 was < 0.025 µM. `CC[C@H]1CN(c2nc(N)c(C(N)=O)nc2Cl)CCN1C1CCN(Cc2ccc(Cl)cc2CC(=O)NCC2CCCO2)CC1` (some centres unmarked) [compound 22] was tested, and the IC50 was < 0.025 µM. In the case of `CC[C@H]1CN(c2nc(N)c(C(N)=O)nc2Cl)CCN1C1CCN(Cc2ccc(C#N)cc2)CC1` [compound 16], the IC50 is reported as < 0.025 µM. In the case of `CC[C@H]1CN(c2ncc(C(=O)NC3CC3)nc2C(F)(F)F)CCN1C1CCN(C(=O)c2ccc(F)c(F)c2)CC1` [compound 490], the IC50 is reported as < 0.025 µM. In the case of `CC[C@H]1CN(c2nc(N)c(C(=O)NC)nc2Cl)CCN1C1CCN(C(=O)C2Cc3ccccc3C2)CC1` [compound 368], the IC50 is reported as > 0.1 µM. `CC[C@H]1CN(c2nc(N)c(C(=O)NCCO)nc2Cl)CCN1C1CCN(Cc2ccc(Cl)cc2C(C)(C)O)CC1` [compound 145] was tested, and the IC50 was < 0.025 µM. `CC[C@H]1CN(c2nc(N)c(C(=O)NCCO)nc2Cl)CCN1C1CCN(Cc2ccc(OC)cc2O)CC1` [compound 152] was tested, and the IC50 was < 0.025 µM. In the case of `CC[C@H]1CN(c2nc(N)c(C(=O)NC)nc2Cl)CCN1C1CCN([C@H](CO)c2ccc(Cl)cc2)CC1` [compound 74], the IC50 is reported as 0.025 to 0.1 µM. With `CC[C@H]1CN(c2ncc(C(=O)NC3CC3)nc2C)CCN1C1CCN([C@@H](CO)c2ccc(Cl)cc2)CC1` [compound 469] the IC50 was < 0.025 µM. `CC[C@H]1CN(c2nc(N)c(C(=O)N[C@H](CO)C(C)C)nc2Cl)CCN1C1CCN(C(=O)c2ccc(Cl)cc2)CC1` [compound 329] was tested, and the IC50 was > 0.1 µM. For `CC[C@H]1CN(c2nc(N)c(C(=O)NC)nc2Cl)CCN1C1CCN([C@@H](CO)c2ccc(Cl)cc2)CC1` [compound 62], the IC50 was < 0.025 µM. Compound `CC[C@H]1CN(c2nc(N)c(C(=O)NCCCO)nc2Cl)CCN1C1CCN(Cc2ccc(Cl)cc2)CC1` [compound 227] has an IC50 of 0.025 to 0.1 µM. `CC[C@H]1CN(c2nc(N)c(C(=O)NCCO)nc2Cl)CCN1C1CCN(C(=O)c2ccc(OC(F)(F)F)cc2O)CC1` [compound 361] was tested, and the IC50 was > 0.1 µM. `CC[C@H]1CN(c2nc(N)c(C(=O)OC)nc2Cl)CCN1C1CCN(Cc2ccc(Cl)cc2F)CC1` [compound 295] was tested, and the IC50 was < 0.025 µM. For `CC[C@H]1CN(c2nc(N)c(C(=O)NCCS(C)(=O)=O)nc2Cl)CCN1C1CCN(Cc2ccc(Cl)cc2)CC1` [compound 100], the IC50 was < 0.025 µM. `CC[C@H]1CN(c2nc(N)c(C(=O)NCCOC)nc2Cl)CCN1C1CCN(Cc2ccc(Cl)cc2)CC1` [compound 268] was tested, and the IC50 was < 0.025 µM. With `CC[C@H]1CN(c2nc(N)c(C(=O)NCCO)nc2Cl)CCN1C1CCN(Cc2ccc(C#N)cc2OCC(=O)NCCO)CC1` [compound 146] the IC50 was < 0.025 µM. With `CC[C@H]1CN(c2nc(N)c(C(=O)NCCO)nc2Cl)CCN1C1CCN(Cc2ccc(-c3csnn3)cc2)CC1` [compound 154] the IC50 was < 0.025 µM. For `CC[C@H]1CN(c2nc(N)c(C(=O)NCCO)nc2Cl)CCN1C1CCN(C(=O)c2ccc(Cl)cc2CC#N)CC1` [compound 317], the IC50 was < 0.025 µM. For `CC[C@H]1CN(c2ncc(C(=O)NC3CC3)nc2C)CCN1C1CCN(Cc2ccc(C)c(F)c2)CC1` [compound 448], the IC50 was < 0.025 µM. `CC[C@H]1CN(c2nc(N)c(C(=O)NCc3cc(O)no3)nc2Cl)CCN1C1CCN(Cc2ccc(Cl)cc2)CC1` [compound 212] was tested, and the IC50 was > 0.1 µM. For `CC[C@H]1CN(c2nc(N)c(C(N)=O)nc2Cl)CCN1C1CCN(C(CO)c2ccc(Cl)cc2)CC1` (some centres unmarked) [compound 3], the IC50 was < 0.025 µM. In the case of `CC[C@H]1CN(c2nc(N)c(C(=O)NC[C@@H](C)O)nc2Cl)CCN1C1CCN(Cc2ccc(Cl)cc2[C@H](O)C(N)=O)CC1` [compound 218], the IC50 is reported as < 0.025 µM. With `CC[C@H]1CN(c2nc(N)c(C(=O)NCCNS(N)(=O)=O)nc2Cl)CCN1C1CCN(Cc2ccc(Cl)cc2)CC1` [compound 264] the IC50 was < 0.025 µM. `CC[C@H]1CN(c2nc(N)c(C(=O)NC3CC3)nc2Cl)CCN1C1CCN(Cc2ccc(Cl)cc2C#N)CC1` [compound 88] was tested, and the IC50 was < 0.025 µM. `CC[C@H]1CN(c2nc(N)c(C(=O)NCCO)nc2Cl)CCN1C1CCN(Cc2ccc(Cl)cc2C(C)C(=O)OC)CC1` (some centres unmarked) [compound 194] was tested, and the IC50 was > 0.1 µM. In the case of `CC[C@H]1CN(c2nc(N)c(C(=O)NC)nc2Cl)CCN1C1CCN(C(=O)c2ccc(Br)c(F)c2)CC1` [compound 333], the IC50 is reported as < 0.025 µM. Compound `CC[C@H]1CN(c2nc(N)c(C(=O)NC)nc2Cl)CCN1C1CCN(CCCC(=O)c2ccc(Cl)cc2)CC1` [compound 73] has an IC50 of 0.025 to 0.1 µM. In the case of `CC[C@H]1CN(c2nc(N)c(C(=O)NCCO)nc2Cl)CCN1C1CCN([C@@H](C(=O)OC)c2ccc(Cl)cc2)CC1` [compound 150], the IC50 is reported as < 0.025 µM.

Same assay, conditions: human; read-out: human IC50
With `CC[C@H]1CN(c2ncc(C(=O)NC3CC3)nc2C)CCN1C1CCN(Cc2ccc(F)c(F)c2)CC1` [Formula 11] the IC50 was < 0.001 µM. `CC[C@H]1CN(c2nc(N)c(C(=O)NCCO)nc2Cl)CCN1C1CCN([C@@H](CO)c2ccc(Cl)cc2)CC1` [Formula 8] was tested, and the IC50 was < 0.001 µM.
